Source: ChEMBL document CHEMBL1201862, “PubChem BioAssay data set” (2004)
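In this assay, cells in 96-well plates receive the compound at five concentrations for 48 hours. Endpoints are linearly interpolated between the surrounding concentrations. Abbreviation: GI50, concentration required for 50% inhibition of growth.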 Activity calls are given as the source filed them. Cut-off read from the data, not from the text of the source: active = GI50 up to about 1.1 µM and inactive = higher.

Legend:
Assay in all cases: DTP human tumour cell line panel, 48 h
UO-31 = test system: UO-31
Hs-578T = test system: Hs-578T
SN12C = test system: SN12C
A498 = test system: A498
RPMI-8226 = test system: RPMI-8226
MDA-MB-435 = test system: MDA-MB-435
NCI-H460 = test system: NCI-H460
SK-OV-3 = test system: SK-OV-3
SK-MEL-5 = test system: SK-MEL-5
CCRF-CEM = test system: CCRF-CEM
OVCAR-5 = test system: OVCAR-5
ACHN = test system: ACHN
HCT-116 = test system: HCT-116
NCI-H226 = test system: NCI-H226
SF-268 = test system: SF-268
HT-29 = test system: HT-29
TK-10 = test system: TK-10
PC-3 = test system: PC-3
MCF7 = test system: MCF7
UACC-62 = test system: UACC-62

Measured: GI50

COC(=O)CCC(C)[C@H]1CCC2C3C(C[C@H](OC(C)=O)[C@@]21C)[C@@]1(C)CCC2(C[C@H]1C[C@H]3OC(C)=O)OOC1(CCC(C(C)(C)C)CC1)OO2 (stereo partly drawn)
inactive: UO-31 12.4 µM | Hs-578T 5.43 µM | SN12C 58.2 µM | A498 > 100 µM | RPMI-8226 3.91 µM | MDA-MB-435 56 µM | NCI-H460 5.65 µM | SK-OV-3 > 100 µM | SK-MEL-5 22.6 µM | CCRF-CEM 5.5 µM | OVCAR-5 > 100 µM | ACHN 5.7 µM | HCT-116 3.97 µM | NCI-H226 59 µM | SF-268 18.6 µM | HT-29 > 100 µM | TK-10 17.7 µM | PC-3 6.7 µM | MCF7 31.4 µM

COC(=O)c1csc(-c2nc(CCNC(=O)OC(C)(C)C)sc2Br)n1
inactive: UO-31 > 100 µM | Hs-578T > 100 µM | SN12C > 100 µM | A498 > 100 µM | RPMI-8226 99.3 µM | MDA-MB-435 > 100 µM | NCI-H460 > 100 µM | SK-OV-3 > 100 µM | SK-MEL-5 > 100 µM | CCRF-CEM > 100 µM | OVCAR-5 > 100 µM | ACHN > 100 µM | HCT-116 > 100 µM | NCI-H226 > 100 µM | SF-268 > 100 µM | HT-29 > 100 µM | UACC-62 > 100 µM | TK-10 > 100 µM | PC-3 55.7 µM | MCF7 > 100 µM

CC(C)C1=CC(=O)C(C)(C2C(O)CC3(C)C4CC=C5C(CCC(OC6OC(CO)C(O)C(O)C6OC6OC(C)C(O)C(O)C6O)C5(C)C)C4(C)C(=O)CC23C)O1 (stereo not drawn)
inactive: UO-31 > 100 µM | Hs-578T > 100 µM | SN12C > 100 µM | A498 > 100 µM | RPMI-8226 > 100 µM | MDA-MB-435 > 100 µM | NCI-H460 > 100 µM | SK-OV-3 > 100 µM | SK-MEL-5 > 100 µM | CCRF-CEM > 100 µM | OVCAR-5 > 100 µM | ACHN > 100 µM | HCT-116 > 100 µM | NCI-H226 > 100 µM | SF-268 > 100 µM | HT-29 > 100 µM | UACC-62 > 100 µM | PC-3 > 100 µM | MCF7 > 100 µM

O=c1[nH]c2cccc([N+](=O)[O-])c2c(=O)n1-c1ccc(Cl)cc1
inactive: Hs-578T 17 µM | SN12C 14 µM | A498 13.9 µM | RPMI-8226 13.6 µM | MDA-MB-435 6.64 µM | NCI-H460 4.4 µM | SK-OV-3 14.3 µM | SK-MEL-5 9.71 µM | CCRF-CEM 17.4 µM | OVCAR-5 16.3 µM | ACHN 8.51 µM | HCT-116 17.9 µM | NCI-H226 13.6 µM | SF-268 12.2 µM | HT-29 7.03 µM | UACC-62 5.3 µM | TK-10 14.9 µM | PC-3 16.6 µM | MCF7 9.91 µM

COc1cccc(NC(=O)CC(=O)Nc2cccc(OC)c2)c1
inactive: UO-31 > 100 µM | Hs-578T > 100 µM | SN12C > 100 µM | A498 > 100 µM | RPMI-8226 > 100 µM | MDA-MB-435 > 100 µM | NCI-H460 > 100 µM | SK-OV-3 > 100 µM | SK-MEL-5 > 100 µM | CCRF-CEM > 100 µM | ACHN > 100 µM | HCT-116 > 100 µM | NCI-H226 > 100 µM | SF-268 > 100 µM | HT-29 > 100 µM | UACC-62 > 100 µM | TK-10 > 100 µM | PC-3 > 100 µM | MCF7 > 100 µM

C(=C/CCCN1O[C@@H](CCCCCCCCc2cccnc2)[C@H]2CCC[C@H]21)/CCCCCCCCCc1cccnc1
inactive: UO-31 19.4 µM | Hs-578T 37.8 µM | SN12C 19.7 µM | A498 22.1 µM | RPMI-8226 7.96 µM | MDA-MB-435 16.2 µM | NCI-H460 17.3 µM | SK-OV-3 19 µM | SK-MEL-5 17.5 µM | CCRF-CEM 15.7 µM | OVCAR-5 20 µM | HCT-116 16 µM | NCI-H226 16.4 µM | SF-268 23.4 µM | HT-29 21.9 µM | UACC-62 20.9 µM | TK-10 18.4 µM | PC-3 18.8 µM | MCF7 15.7 µM

CCN1C=C/C(=C\C=C\c2cc[n+](CC)c3ccccc23)c2ccccc21
inactive: UO-31 15.2 µM | Hs-578T 4.02 µM | SN12C 3.63 µM | A498 3.78 µM | RPMI-8226 3.07 µM | MDA-MB-435 4.21 µM | NCI-H460 3.4 µM | SK-OV-3 4.66 µM | SK-MEL-5 8.99 µM | CCRF-CEM 4.52 µM | OVCAR-5 4.12 µM | ACHN 11.9 µM | HCT-116 2.75 µM | NCI-H226 3.36 µM | SF-268 4.99 µM | HT-29 3.51 µM | UACC-62 10.8 µM | TK-10 10.6 µM | PC-3 4.49 µM | MCF7 6.28 µM

COC(=O)[C@]12CSC[C@H]1C[C@H](c1ccc(N(C)C)cc1)N2
inactive: UO-31 > 100 µM | Hs-578T > 100 µM | SN12C > 100 µM | A498 > 28.1 µM | RPMI-8226 > 31.6 µM | MDA-MB-435 > 100 µM | NCI-H460 > 100 µM | SK-OV-3 > 100 µM | SK-MEL-5 > 100 µM | OVCAR-5 > 100 µM | ACHN > 100 µM | HCT-116 > 100 µM | NCI-H226 > 100 µM | SF-268 > 100 µM | UACC-62 > 100 µM | TK-10 > 100 µM | PC-3 > 100 µM | MCF7 > 100 µM

CCOC(CN=C=S)OCC
inactive: UO-31 > 10 µM | Hs-578T > 10 µM | SN12C > 10 µM | A498 > 10 µM | RPMI-8226 3.77 µM | MDA-MB-435 > 10 µM | NCI-H460 > 10 µM | SK-OV-3 > 10 µM | SK-MEL-5 > 10 µM | CCRF-CEM 4.45 µM | ACHN > 10 µM | HCT-116 7.4 µM | NCI-H226 > 10 µM | SF-268 > 10 µM | HT-29 > 10 µM | UACC-62 > 10 µM | TK-10 > 10 µM | PC-3 > 10 µM | MCF7 9.27 µM

CCN1C(=O)/C(=C\Nc2ccccc2)S/C1=N/Nc1ncc(CC(=O)Nc2ccccc2C)s1
inactive: UO-31 38.7 µM | Hs-578T 45.6 µM | SN12C > 100 µM | A498 > 100 µM | RPMI-8226 36.5 µM | MDA-MB-435 > 100 µM | NCI-H460 29.1 µM | SK-OV-3 > 100 µM | SK-MEL-5 46.5 µM | CCRF-CEM 82.6 µM | OVCAR-5 > 100 µM | ACHN 83.8 µM | HCT-116 > 100 µM | NCI-H226 11.2 µM | SF-268 88.5 µM | HT-29 33.7 µM | UACC-62 83.6 µM | TK-10 75.5 µM | PC-3 44.9 µM | MCF7 82.2 µM

CCC(C)C(C(=O)N/N=C1/SCC(=O)N1C)C(=O)N/N=C1/SCC(=O)N1C (stereo not drawn)
inactive: UO-31 > 100 µM | Hs-578T > 100 µM | SN12C > 100 µM | A498 > 100 µM | RPMI-8226 > 100 µM | MDA-MB-435 > 100 µM | NCI-H460 > 100 µM | SK-OV-3 > 100 µM | SK-MEL-5 > 100 µM | OVCAR-5 > 100 µM | ACHN > 100 µM | HCT-116 > 100 µM | NCI-H226 > 100 µM | SF-268 > 100 µM | HT-29 > 100 µM | UACC-62 > 100 µM | TK-10 > 100 µM | PC-3 > 100 µM | MCF7 > 100 µM

O=C(O)CCC(N/N=N/c1ccc(-c2nc3ccccc3[nH]2)cc1)C(=O)O (stereo not drawn)
inactive: UO-31 13.6 µM | Hs-578T 44.4 µM | SN12C 60.4 µM | A498 > 100 µM | RPMI-8226 17.9 µM | MDA-MB-435 52.8 µM | NCI-H460 31.8 µM | SK-OV-3 59.7 µM | SK-MEL-5 66.5 µM | CCRF-CEM 15 µM | OVCAR-5 > 100 µM | ACHN 28.2 µM | HCT-116 70.8 µM | NCI-H226 > 100 µM | HT-29 58.1 µM | TK-10 > 100 µM | PC-3 81.8 µM | MCF7 23.1 µM

O=C(O)C(Cc1c[nH]c2ccccc12)N1C(=O)c2ccccc2C1=O (stereo not drawn)
inactive: UO-31 > 100 µM | Hs-578T > 100 µM | SN12C > 100 µM | A498 > 100 µM | RPMI-8226 > 100 µM | MDA-MB-435 > 100 µM | NCI-H460 > 100 µM | SK-OV-3 > 100 µM | SK-MEL-5 > 100 µM | OVCAR-5 > 100 µM | ACHN > 100 µM | HCT-116 > 100 µM | NCI-H226 > 100 µM | SF-268 > 100 µM | HT-29 > 100 µM | UACC-62 > 100 µM | TK-10 > 100 µM | PC-3 > 100 µM | MCF7 > 100 µM

COc1cc(C(c2c(O)c3ccccc3oc2=O)c2c(O)c3ccccc3oc2=O)ccc1O
inactive: UO-31 25.1 µM | Hs-578T 40.4 µM | SN12C 19.1 µM | A498 51.9 µM | RPMI-8226 34.6 µM | MDA-MB-435 33 µM | NCI-H460 20.9 µM | SK-OV-3 > 100 µM | SK-MEL-5 15.7 µM | CCRF-CEM 28.8 µM | OVCAR-5 18.7 µM | ACHN 22.6 µM | HCT-116 34 µM | NCI-H226 50.4 µM | SF-268 21.5 µM | HT-29 21.1 µM | UACC-62 18.5 µM | TK-10 20.3 µM | PC-3 33.7 µM | MCF7 19.3 µM
